Structures are written as SMILES. Bounds are passed on as bounds.

Data set [1] concerns IL-1β. Description: Inhibition of IL-1β secretion from LPS stimulated peripheral blood mononuclear cells (ELISA). The format is cell-based. The following applies: LPS (1 μg/ml) stimulated human PBMC, 18 hours; read-out: The median inhibition concentration (IC50, nM) of IL-1β. How it is done:
(§1) To study the effect of the compound of the present invention, in vitro, the inhibition of the IL-1β and TNF-α secretion was measured using the following procedure:
(§2) Cytokine production was measured in the media from lipopolysaccharide (LPS) stimulated peripheral blood mononuclear cells. The mononuclear cells were isolated from human peripheral blood by Lymphoprep® (Nycomed, Norway) fractionation and suspended in RPMI 1640 (growth medium) with foetal calv serum (FCS, 2%), at a concentration of 5×10^5 cells/ml. The cells were incubated in 24-well tissue culture plates in 1 ml aliquots. Test compounds were dissolved in dimethylsulfoxide (DMSO, 10 mM) and were diluted with the medium. Compounds were added to the cells for 30 minutes, then LPS (1 μg/ml final concentration) was added. The plates were incubated for 18 hours, and the concentration of IL-1β and TNF-α in the medium was determined by enzyme-linked immunosorbent assays. The median inhibitory concentrations (IC50) of the compounds were calculated.

Data set [2] relates to TNF-α. Description: Inhibition of TNF-α secretion from LPS stimulated peripheral blood mononuclear cells (ELISA). It counts as cell-based. The following applies: LPS (1 μg/ml) stimulated human PBMC, 18 hours; read-out: The median inhibition concentration (IC50, nM) of TNF-α. The method, then: as §1, §2
In data set [3] the test system is PMN-superoxide. Description: Inhibition of PMN (polymorphonuclear) superoxide secretion. The format is cell-based. To be noted: human PMN granulocytes, TNF-α primed, fMLP 10^-7 M; read-out: The median inhibition concentration (IC50, nM) of PMN-superoxide. How it is done: The compounds of the present invention also show similar activities in the ability to inhibit PMN (polymorphonuclear) superoxide secretion which is also indicative of potentially useful anti-inflammatory drugs. The compounds were tested using the following procedure:
Human polymorphonuclear (PMN) granulocytes were isolated from human blood by dextran sedimentation, Lymphoprep® fractionation and hypotonic lysis of contaminating erythrocytes.
Superoxide anion generation was measured as the superoxide dismutase inhibitable reduction of ferricytochrome C (Madhu, S. B. et al, Inflammation, 16, 241, (1992)).
The cells were suspended in Hanks' balanced salt solution, and incubated for 10 minutes at 37° C. with test compounds. The cells were primed by the addition of TNF-α (3 ng/ml final concentration) for 10 minutes, and then ferricytochrome C, (final concentration 750 μg/ml), bovine serum albumin (BSA, final concentration 1 mg/ml) and formyl-methionyl-leucyl-phenylalanine (fMLP, final concentration 10^-7 M) were added for 3 minutes.
The cells were chilled on ice, and were spun down. The optical densities in the cell-free supernatant was measured in a spectrophotometer.
The median inhibitory concentration (IC50) of the compounds was calculated.

The test system of data set [4] is TPA induced murine skin inflammation. Description: TPA induced murine chronic skin inflammation model, ear thickness (ET). The format is in vivo, mice. To be noted: topical, twice daily on day 8, 9 and 10 and once on day 11. How it is done:
(§3) To study the compounds of the present invention in vivo the 12--O--tetradecanoylphorbol-13-acetate (TPA) induced murine chronic skin inflammation model were used (De Young, L. M. et al, Agents Actions, 26, 335-341 (1989); Carlson, R. P. et al, Agents Actions, 17, 197-204 (1985); Alford, J. G. et al, Agents Action, 37, (1992); Stanley, P. L. et al, Skin Pharmacol, 4, 262-271 (1991)). The compounds were tested using the following procedure:
(§4) In groups of 6 female mice weighing 18-25 grams, ear skin inflammation was induced by multiple topical applications of TPA on alternate days during a 10 day period. The resulting inflammation was treated topically with compounds in acetone (20 μl/ear) twice daily on day 8, 9 and 10 and once on day 11. The increased ear thickness (ET, right ear thickness minus left ear thickness) was determined approximately 6 hours after the treatment, the mice were sacrificed and the myeloperoxidase (MPO)-activitywas determined in ear biopsies.

The test system of data set [5] is myeloperoxidase (MPO). Description: TPA induced murine chronic skin inflammation model, myeloperoxidase (MPO) activity in ear biopsies. It counts as in vivo, mice. The following applies: topical, twice daily on day 8, 9 and 10 and once on day 11. The method, then: as §3, §4
Data set [6] in a line: Spleen and thymus weight in the TPA induced murine skin inflammation model. The format is in vivo, mice. The following applies: 0.1 mg/ear, topical. The method, then:
as §3, §4

For `Nc1ccccc1Nc1ccc(C(=O)c2ccccc2)cc1` [Example 1, 4-(2-Aminophenylamino)benzophenone], the figures for the IC50 in data set [1], in data set [2] and in data set [3] were 250 nM, 790 nM and 160 nM, respectively. The “% inhibition of ET” value in data set [4] (0.1 mg/ear) is listed as 50%. The “% inhibition of MPO” value in data set [5] (0.1 mg/ear) stood at 65%.
In the case of `Nc1ccc(Nc2ccc(C(=O)c3ccccc3)cc2)cc1` [Example 2, 4-(4-Aminophenylamino)benzophenone], the “% inhibition of ET” value in data set [4] (0.1 mg/ear) came to 40%. In addition, in data set [5] (0.1 mg/ear), the “% inhibition of MPO” value is 76%.
Consider `Nc1ccccc1Nc1ccc(C(=O)c2ccccc2Cl)cc1` [Example 13, 4-(2-Aminophenylamino)-2'-chlorobenzophenone], for which the IC50 in data set [1] came to 160 nM; in data set [2], 200 nM; in data set [3], 40 nM.
For the compound `Cc1ccc(S(=O)(=O)Nc2ccccc2Nc2ccc(C(=O)c3ccccc3)cc2)cc1` [Example 27, N-(2-(4-Benzoylphenylamino)phenyl)-4-toluenesulfonamide], in data set [4] (0.1 mg/ear), the “% inhibition of ET” value came to 44%. Further, the “% inhibition of MPO” value in data set [5] (0.1 mg/ear) was found to be 48%.
On to `CCOC(=O)Nc1ccccc1Nc1ccc(C(=O)c2ccccc2)cc1` [Example 32, Ethyl N-(2-(4-benzoylphenylamino)phenyl)carbamate], for which the IC50 in data set [1] is 100 nM; in data set [2], 130 nM; in data set [3] it was above 10000 nM.
With `Cc1ccccc1C(=O)c1ccc(Nc2ccccc2N)cc1Cl` [Example 56, 4-(2-Aminophenylamino)-2-chloro-2'-methylbenzophenone], the IC50 in data set [1] amounted to 13 nM; in data set [2], 7.1 nM; in data set [3], 5 nM.
On the same counts, the results for `CCOC(=O)Nc1ccccc1Nc1ccc(C(=O)c2ccccc2C)c(Cl)c1` [Example 73, Ethyl N-(2-(4-(2-methylbenzoyl)-3-chlorophenylamino)phenyl)carbamate] are 32 nM, 5 nM and 5 nM.
For `C[C@]12CCC(=O)C=C1CC[C@@H]1[C@@H]2[C@@H](O)C[C@@]2(C)[C@H]1CC[C@]2(O)C(=O)CO` [Hydrocortisone, reference compound], the “% inhibition of ET” value in data set [4] (0.03 mg/ear) is listed as 36%; in data set [4] (0.1 mg/ear) it was 58%. Further, the “% inhibition of MPO” value in data set [5] (0.03 mg/ear) was 51%; in data set [5] (0.1 mg/ear), 69%. Moreover, the “Reduction of spleen and thymus weight” value in data set [6] was “Reduction of spleen and thymus weight”.

For the origin of these results see patent US6313174A, “Aminobenzophenones as inhibitors of interleukin and TNF” (Leo Pharmaceutical Products Ltd.A/S/ (L.o slashed.vens …, priority 1997, dated 2001).
